Measured values as given in patent publication US20160031935A1, “SMALL MOLECULE MODULATORS OF PCSK9 AND METHODS OF USE THEREOF” (ADAERATA, LIMITED PARTNERSHIP, priority 2013, published 2016).

Key:
Assay type in all cases: cell-based, human
[1] = tested on: HepG2 stable cells over-expressing WT PCSK9(+V5); assay: MTT toxicity assay; conditions: 33.3 μM or less; 24 h
Method: HepG2 stable cells over-expressing hPCSK9(+V5) were seeded in complete DMEM (high glucose+sodium pyruvate) (Wisent)+10% FBS media in 96-well plates (Greiner BioOne) at a density of 1×10^5 cells/well (100 μl) and incubated for 20 hours. Cells were rinsed once with 100 ul/well of serum free DMEM media, followed by addition of 100 μl/well of DMEM (high glucose+sodium pyruvate) (Wisent)+0.07% BSA (Sigma-Aldrich) media containing compound at various concentrations (11, 33, 100 μM) or DMSO control (0.4% final) followed by overnight (24 hours) incubation. The MTT assay (Promega) consisted of addition of 20 μl/well MTT reagent and incubation for 45 minutes at 37° C., following the manufacturer's instructions. Absorbance was recorded at 490 nm and corrected for background due to nonspecific absorbance (690 nm).
For the MTT toxicity assay, HepG2 stable cells over-expressing WT PCSK9(+V5) were seeded in 96-well plates (Greiner BioOne) and incubated for 20 hours. Following a brief wash, cells were incubated overnight (24 hours) in the presence of increasing concentrations (11, 33, 100 μM) of compounds or in the presence of DMSO (control). The MTT assay (Promega) consisted of addition of 20 μl/well MTT reagent and incubation for 45 minutes at 37° C., following the manufacturer's instructions. Absorbance was recorded at 490 nm and corrected for background due to nonspecific absorbance (690 nm). Compounds with a low toxicity at 33.3 μM or less were selected as exemplified in FIG. 3 for compounds 19, 22a, 23, 4 and 17.

[2] = tested on: cell surface LDLR activity; assay: Dil-LDL uptake assay in HepG2 naïve cells; conditions: 33.3 μM; HepG2 naïve cells
Method: HepG2 naive cells and HEK293 naive cells were plated in 96-well plates (CellBind black plate with clear bottom (Corning; Cat #3340)) at a density of 25,000 cells/well, in complete media (DMEM high glucose (+sodium pyruvate for HepG2) (Wisent)+10% FBS). After 20 hours, cells were washed for 30 min with serum free DMEM media (100 μl/well), the wash media was removed and replaced with 100 μl/well of incubation media (DMEM high glucose (+sodium pyruvate for HepG2) (Wisent)+0.07% BSA (Sigma-Aldrich)) containing compound at various concentrations ([…]) or DMSO control (0.4% final). Each condition was prepared in triplicates. After 6 hours incubation at 37° C., Dil-LDL (Biomedical Technologies (Cat #BT-904)) was added to the cell media (5 μl) at 5 μg/ml final concentration, and cells returned to tissue culture incubator for another 18 hours (a total of 24 hours incubation with the compounds). After 2 washes (200 μl/well) with ice-cold D-PBS (Wisent) and aspiration of the final wash, plates were scanned (bottom read) on a SpectraMax GeminiEM™ plate reader (Molecular Devices). For each well, raw Dil-LDL uptake was measured as the average fluorescence intensity (RFU) (ex: 520 nm/em: 575 nm, cutoff: 550 nm) of 9 readings in 3 different points in the well. Dil-LDL uptake in each well was corrected for total number of cells by performing a CyQuant™ cell assay (Invitrogen; Cat #C7026). Namely, after recording the Dil fluorescence, the plate was frozen overnight at −80° C. The next day, the plates were thawed at room temperature, the cells lysed according to the manufacturer's protocol, and the number of cells/well was determined by measuring the fluorescence (RFU) of the CyQuant green fluorescent dye bound to the cellular nucleic acids (ex: 485 nm/em: 538 nm, cutoff: 515 nm). For each condition, Dil-RFU was divided by CyQuant-RFU. Corrected dil-LDL uptake is reported as % DMSO control and was obtained from triplicate wells.
The PCSK9 inhibitory compounds were also characterized using a Dil-LDL fluorescent uptake assay as described in Poirier et al., J. Biol. Chem. 284: 28856-28864, 2009. The method entails the fluorescence measurement of the Dil-LDL cellular incorporation via LDLR internalization (a measurement of cell surface LDLR activity) in human hepatocyte derived HuH7 or HepG2 cell lines, or human embryonic HEK293 cells, in the presence or absence of compounds.
HepG2 naïve cells and HEK293 naïve cells were plated in 96-well plates (CellBind™ black plate with clear bottom (Corning; Cat #3340)). At 20 h post-seeding, cells were incubated in the absence (DMSO or negative control) or in the presence of different concentrations of compounds. Each condition was prepared in triplicates. After 6 hours incubation, Dil-LDL (Biomedical Technologies (Cat #BT-904)) was added to the cell media, and cells returned to tissue culture incubator for another 18 hours. Plates were scanned (bottom read) on a SpectraMax GeminiEM™ plate reader (Molecular Devices). For each well, raw Dil-LDL uptake was measured as the average fluorescence intensity (RFU) (ex: 520 nm/em: 575 nm, cutoff: 550 nm) of 9 readings in 3 different points in the well. Dil-LDL uptake in each well was corrected for total number of cells by performing a CyQuant™ cell assay (Invitrogen, Cat #C7026) according to the manufacturer's instructions. Corrected Dil-LDL uptake is reported as a % of DMSO control and was obtained from triplicate wells.

cell-surface LDLR = assay: Immunofluorescence of cell-surface LDLR in HepG2 naïve cells; conditions: 33.3 μM, 20 h, non-permeabilized cells
Method: HepG2 naïve cells were plated on Poly-L-Lysine-coated (50 ug/ml) round microscope cover slips 1.12 mm thickness (Fisherbrand 12CIR #1) that were placed in a 24-well cell culture plate. Seeding was performed in DMEM complete media (10% FBS) and 24 hours later the media was swapped for media (+0.07% BSA) containing 33.3 μM of the different inhibitor compounds (300 μl/well). A volume of DMSO equivalent to the volume of inhibitor compound was also diluted in 0.07% BSA containing media and used as a negative control. After a 20 hour incubation period, the cells were washed 3× with PBS and then fixed for 10 min with 3.7% paraformaldehyde. Immunofluorescence of human LDLR (green labeling) was performed under non-permeabilizing conditions. After an additional 3 washes with PBS, cells were blocked for 30 min with 1% BSA, followed by overnight incubation at 4° C. with primary antibody (1:200 goat polyclonal anti-hLDLR in 1% BSA, R&D Systems). […] Immunofluorescence analyses were performed with a confocal miscroscope (Zeiss LSM-710).
The PCSK9 inhibitory compounds were characterized by immunofluorescence for cell-surface LDLR and for human transferrin receptor, as control, in HepG2 naïve cells. Cells were plated on Poly-L-Lysine-coated (50 ug/ml) round microscope cover slips 1.12 mm thickness (Fisherbrand 12CIR #1) that were placed in a 24-well cell culture plate. […]

Compound	toxicity in MTT assay [1]	Dil-LDL uptake (FIG. 5A, in words) [2]	LDLR at the cell surface (immunofluorescence) (cell-surface LDLR)
CCCCCCCCCC(=O)N[C@H](C(=O)N[C@@H](Cc1ccccc1)C(=O)N[C@@H](C)C(=O)NCB(O)O)C(C)C [Example 4, {[(2S)-2-[(2S)-2-[(2S)-2-Decanamido-3-methylbutanamido]-3-phenylpropanamido]propanamido]methyl}boronicacid]	low toxicity	–	–
CCCCCCCCCC(=O)N[C@H](C(=O)N[C@@H](Cc1ccccc1)C(=O)N[C@@H](C)C(=O)NC(CCC(N)=O)C(O)CF)C(C)C (stereo partly drawn) [Example 21a, N-((2S)-1-(((2S)-1-(((2S)-1-((6-Amino-1-fluoro-2-hydroxy-6-oxohexan-3-yl)amino)-1-oxopropan-2-yl)amino)-1-oxo-3-phenylpropan-2-yl)amino)-3-methyl-1-oxobutan-2-yl)decanamide]	–	increase in the Dil-LDL uptake	–
CCCCCCCCCC(=O)N[C@H](C(=O)N[C@@H](Cc1ccccc1)C(=O)N[C@@H](C)C(=O)NC(CCC(N)=O)C(O)C(F)(F)F)C(C)C (stereo partly drawn) [Example 19, N-((2S)-1-(((2S)-1-(((2S)-1-((6-Amino-1,1,1-trifluoro-2-hydroxy-6-oxohexan-3-yl)amino)-1-oxopropan-2-yl)amino)-1-oxo-3-phenylpropan-2-yl)amino)-3-methyl-1-oxobutan-2-yl)decanamide]	low toxicity	increase in the Dil-LDL uptake	increase of LDLR at the cell surface
CC(C)[C@H](NC(=O)c1ccc(-c2ccccc2)cc1)C(=O)N[C@@H](Cc1ccccc1)C(=O)N[C@@H](C)C(=O)NCB(O)O [Example 2, {[(2S)-2-[(2S)-2-[(2S)-3-Methyl-2-[(4-phenylphenyl)formamido]butanamido]-3-phenylpropanamido]propanamido]methyl}boronic acid]	–	no measurable activity	–
CC(C)[C@H](NC(=O)Cc1ccc(OC(F)(F)F)cc1)C(=O)N[C@@H](Cc1ccccc1)C(=O)N[C@@H](C)C(=O)NC(CCC(N)=O)C(O)C(F)(F)F (stereo partly drawn) [Example 23, 6,6,6-Trifluoro-5-hydroxy-4-((S)-2-((S)-2-((S)-3-methyl-2-(2-(4-(trifluoromethoxy)phenyl)acetamido)butanamido)-3-phenylpropanamido)propanamido)hexanamide]	low toxicity	increase in the Dil-LDL uptake	–
COC(=O)N[C@H](C(=O)N[C@@H](Cc1ccccc1)C(=O)N[C@@H](C)C(=O)NCB(O)O)C(C)C [Example 1]	–	no measurable activity	–
CCCCCCCCCC(=O)N[C@H](C(=O)N[C@@H](Cc1ccccc1)C(=O)NC(C)C(=O)NC(CCC(N)=O)C(C)O)C(C)C (single isomer, unassigned) [Example 22a]	low toxicity	increase in the Dil-LDL uptake	–
COC(=O)CCC(NC(=O)[C@H](C)NC(=O)[C@H](Cc1ccccc1)NC(=O)[C@@H](NC(=O)OC)C(C)C)B(O)O (mixture of isomers) [Example 17, [(1R/S)-4-Methoxy-1-[(2S)-2-[(2S)-2-[(2S)-2-[(methoxycarbonyl)amino]-3-methylbutanamido]-3-phenylpropanamido]propanamido]-4-oxobutyl]boronic acid]	low toxicity	no measurable activity	–
